According to US20190269666A1, “COMBINATION THERAPY WITH MERESTINIB AND ANTI-PD-L1 OR ANTI-PD-1 INHIBITORS FOR USE IN THE TREATMENT OF CANCER” (Eli Lilly and Company, priority 2016, published 2019):

How the values were obtained:
[1] = test system: CT26 colorectal cancer model; test: Study S082015: single agent merestinib in CT26 syngeneic mouse tumor model; type: in vivo; details: for Body weight change from baseline (%) / T/C %: Day 26
Protocol: A syngeneic mouse tumor model is used to evaluate potential combination effect of merestinib and anti-PD-L1 antibody is the CT26 colorectal cancer model using the mouse colorectal cancer line CT26. This experiment is conducted in immune competent mice (Grosso and Jure-Kunkel, Cancer Immunity Vol. 13, p. 5, January 2013; Duraiswamy et al, Cancer Research, Jun. 15, 2013 73; 3591.). Anti-PD-L1 antibody surrogate (178G7, LSN3370181) (Eppihimer et al. Microcirculation 2002:9(2):133) is used in the mouse study.
Female BALB/c mice (18-20 gm) from Envigo (Harlan Laboratories) are used for this study. Food and water are available ad libitum. Animals are acclimated for one week prior to any experimental manipulation. The study is performed in accordance with AALAC accredited institutional guidelines.
Merestinib is formulated as a solution in 10% PEG 400 in 90% (20% Captisol in water) once weekly. Anti-PD-L1 antibody (178G7, LSN3370181) is formulated in PBS (phosphate buffered saline).
CT26 cells (from internal in vivo pharmacology cell culture group lot CT26.WT.3184878) are used for implantation. Approximately 1×10^6 cells in HBSS are implanted subcutaneously into the right hind flank of the animal under anesthesia.
Study S082015 has four groups: 1) vehicle control (10% PEG 400 in 90% [20% Captisol in water]) dosed orally once daily for 21 days; 2) single agent merestinib at 6 mg/kg once daily orally for 21 days; 3) single agent merestinib at 12 mg/kg once daily orally for 21 days; 4) single agent merestinib at 24 mg/kg once daily orally for 21 days. Dosing of merestinib is initiated at Day 6 post-implant of the CT26 cells. There are 15 animals per group. Five animals per group are taken down on Day 13 and on Day 20 post-implant of CT26 cells for the harvesting of spleens and tumors for the interrogation of the effect of merestinib on immune functions. Five animals per group remain to the end of the study (Day 26). Tumor volumes and body weight are measured bi-weekly. Tumor volume is estimated by using the formula: v=l×w2×0.536 where l=larger of measured diameter and w=smaller of perpendicular diameter. At the end of the study, animals are sacrificed using CO2 and cervical dislocation.
Tumor volume is transformed to the log scale to equalize variance across time and treatment groups. The log volume data are analyzed with a two-way repeated measures analysis of variance by time and treatment using the MIXED procedures in SAS software (Version 9.3). The correlation model for the repeated measures is spatial power. Treated groups are compared to the control group at each time point. The MIXED procedure is also used separately for each treatment group to calculate least squares means and standard errors at each time point. Both analyses account for the autocorrelation within each animal and the loss of data that occurs when animals are removed or lost before Day 33.

CT26 cells = test: CT26 cell proliferation; type: cell-based; details: Mus musculus, in vitro
Protocol: (§1) CT26 CRC tumor cells harbor KRAS activating mutation G12D. […] CT26 cells also express high level of phospho-AXL (p-AXL) by western blot analysis and merestinib is shown to decrease p-AXL in vitro by more than 60% at a concentration of 500 nM in the mouse phospho-RTK array, but show very little effect on CT26 cell proliferation (IC50>20 μM).

phospho-AXL (p-AXL) = molecular target: T1, phospho-AXL (p-AXL) (Mus musculus, UniProt Q00993); test: Mouse phospho-RTK array in CT26 cells; type: cell-based; details: 500 nM, CT26 cells in vitro
T1 construct: CT26 cells also express high level of phospho-AXL (p-AXL) by western blot analysis; endogenous in cells; host or cells: CT26 (mouse colorectal cancer line)
Protocol: as §1

T1 sequence (Q00993 19-888): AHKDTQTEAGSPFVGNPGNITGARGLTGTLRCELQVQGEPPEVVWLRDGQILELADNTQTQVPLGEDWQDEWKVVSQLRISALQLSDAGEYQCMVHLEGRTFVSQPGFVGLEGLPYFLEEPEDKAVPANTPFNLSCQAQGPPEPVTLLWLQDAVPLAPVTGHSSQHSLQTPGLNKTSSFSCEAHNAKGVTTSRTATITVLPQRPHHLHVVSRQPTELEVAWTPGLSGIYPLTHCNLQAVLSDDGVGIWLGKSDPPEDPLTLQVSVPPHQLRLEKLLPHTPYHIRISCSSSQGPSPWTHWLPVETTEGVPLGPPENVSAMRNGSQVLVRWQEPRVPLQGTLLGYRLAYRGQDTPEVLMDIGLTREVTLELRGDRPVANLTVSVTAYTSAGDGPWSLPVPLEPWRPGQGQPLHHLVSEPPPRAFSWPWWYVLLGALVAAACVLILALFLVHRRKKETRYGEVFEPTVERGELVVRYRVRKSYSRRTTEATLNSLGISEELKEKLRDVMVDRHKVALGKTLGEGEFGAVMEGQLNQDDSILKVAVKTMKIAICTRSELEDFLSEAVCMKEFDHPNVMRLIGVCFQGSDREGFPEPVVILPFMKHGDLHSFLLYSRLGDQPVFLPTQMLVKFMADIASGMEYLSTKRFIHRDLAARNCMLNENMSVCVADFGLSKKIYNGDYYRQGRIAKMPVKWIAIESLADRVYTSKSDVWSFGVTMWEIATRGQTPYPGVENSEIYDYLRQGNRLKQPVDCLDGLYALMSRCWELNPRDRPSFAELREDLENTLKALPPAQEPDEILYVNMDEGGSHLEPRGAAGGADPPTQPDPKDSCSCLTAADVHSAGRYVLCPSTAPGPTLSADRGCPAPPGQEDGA

Compound: Cc1ccc(C(=O)Nc2ccc(Oc3cc4cnn(C)c4cc3-c3cn[nH]c3)c(F)c2)c(=O)n1-c1ccc(F)cc1 [merestinib, N-(3-fluoro-4-(1-methyl-6-(1H-pyrazol-4-yl)-1H-indazol-5-yloxy)phenyl)-1-(4-fluorophenyl)-6-methyl-2-oxo-1,2-dihydropyridine-3-carboxamide]
- Body weight change from baseline (%) ([1]; 6 mg/kg once daily orally): 5.7%
- T/C % ([1]; 6 mg/kg once daily orally): 52.8%
- Body weight change from baseline (%) ([1]; 12 mg/kg once daily orally): 3.4%
- T/C % ([1]; 12 mg/kg once daily orally): 34.8%
- anti-tumor effect ([1]; 24 mg/kg dose): tumor stasis
- Body weight change from baseline (%) ([1]; 24 mg/kg once daily orally): 3.0%
- T/C % ([1]; 24 mg/kg once daily orally): 13.4%
- anti-tumor effect as compared to vehicle control ([1]; 6, 12, 24 mg/kg once daily orally): significant anti-tumor effect
- tolerability ([1]; all three doses (6, 12, 24 mg/kg), no significant loss in body weight): well tolerated
- IC50 (CT26 cells): > 20 µM
- decrease of p-AXL (phospho-AXL (p-AXL)): more than 60%
